US20260256789A1, “METHODS FOR TREATMENT OF CANCER” (Frontier Medicines Corporation, priority 2022, published 2026)

The molecules below were run against T1, KRAS G12C (GMPPNP-loaded) and cRAF Ras-binding domain (Homo sapiens, UniProt P01116, C118S/C51S/C80L/G12C) (assay: Inhibition of KRAS G12C and cRAF binding (AlphaScreen)). Conditions: KRAS G12C preloaded with GTP analogue GMPPNP, 2 hours preincubation.
T1 construct: truncated version comprising amino acids 1-169
In short: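 AlphaScreen used biotin-AviTag KRAS G12C (Cys-light, aa 1-169; 0.5 nM), GMPPNP-loaded, preincubated 2 h with compound (top 50 μM, 1:3, 10 points, 2% DMSO) in pH 7.4 Hepes buffer with 10 μM GMPPNP. GST-cRAF RBD (aa 50-131; 0.75 nM) plus beads were then added for 60-90 min at room temperature, and IC50 came from a 4-parameter fit.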

T1 sequence (P01116 1-169 isoform P01116-2 G12C/C51S/C80L/C118S): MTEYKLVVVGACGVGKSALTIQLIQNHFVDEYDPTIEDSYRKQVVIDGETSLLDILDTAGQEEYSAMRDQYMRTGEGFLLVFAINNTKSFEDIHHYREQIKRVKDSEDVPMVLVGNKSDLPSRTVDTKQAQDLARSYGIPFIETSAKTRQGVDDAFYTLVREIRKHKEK

Compound	IC50 [nM]
C=CC(=O)N1CC[C@@H](N(C)c2nc(OC[C@@]34CCCN3C[C@H](F)C4)nc3c2CC(C)C(c2nc(N)cc(C)c2C(F)(F)F)C3)C1 (some centres unmarked) [Example 138]	100 to 500
C=CC(=O)N1CC[C@@H](N(C)c2nc(OC[C@@]34CCCN3C[C@H](F)C4)nc3c2CC(C)C(c2nc(N)cc(C)c2C(F)(F)F)C3)C1 (stereo partly drawn) [Example 68, 1-((3R)-3-((7-(6-amino-4-methyl-3-(trifluoromethyl)pyridin-2-yl)-2-(((2R,7aS)-2-fluorohexahydro-1H-pyrrolizin-7a-yl)methoxy)-6-methyl-5,6,7,8-tetrahydroquinazolin-4-yl)(methyl)amino)pyrrolidin-1-yl)prop-2-en-1-one]	100 to 500
C=CC(=O)N1CC[C@@H](N(C)c2nc(OC[C@@]34CCCN3C[C@H](F)C4)nc3c(F)c(-c4cccc(C(F)F)c4C4CC4)ncc23)C1 [Example 195]	≥ 500
C=CC(=O)N1CC[C@@H](N(C)c2nc(OC[C@@]34CCCN3C[C@H](F)C4)nc3c(F)c(-c4nc(N)ccc4F)ncc23)C1 [Example 96, 1-((R)-3-((7-(6-amino-3-fluoropyridin-2-yl)-8-fluoro-2-(((2R,7aS)-2-fluorotetrahydro-1H-pyrrolizin-7a(5H)-yl)methoxy)pyrido[4,3-d]pyrimidin-4-yl)(methyl)amino)pyrrolidin-1-yl)prop-2-en-1-one]	≥ 500
C=CC(=O)N1CC[C@H](O)[C@@H](N(C)c2nc(OC[C@@]34CCCN3C[C@H](F)C4)nc3c(F)c(-c4cccc(Cl)c4C4CC4)ncc23)C1 [Example 237]	≥ 500
Cc1cc(N)nc([C@H]2Cc3nc(OC[C@@]45CCCN4C[C@H](F)C5)nc(N(C)[C@@H]4CCN(C(=O)/C=C/c5nc(C(C)(C)O)no5)C4)c3C[C@@H]2C)c1C(F)(F)F [Example 94, (E)-1-((R)-3-(((6S,7S)-7-(6-amino-4-methyl-3-(trifluoromethyl)pyridin-2-yl)-2-(((2R,7aS)-2-fluorotetrahydro-1H-pyrrolizin-7a(5H)-yl)methoxy)-6-methyl-5,6,7,8-tetrahydroquinazolin-4-yl)(methyl)amino)pyrrolidin-1-yl)-3-(3-(2-hydroxypropan-2-yl)-1,2,4-oxadiazol-5-yl)prop-2-en-1-one]	≥ 500
C=CC(=O)N1CC(CN(C)c2nc(OCC34CCCN3CCC4)nc3c2C[C@H](C)[C@@H](c2nc(N)cc(C)c2C(F)(F)F)C3)C1 (single isomer, unassigned) [Example 50]	≥ 500
C=CC(=O)N1CC[C@@H](N(C)c2nc(OCC34CCCN3CCC4)nc3c2C[C@@H](C)[C@H](c2nc(N)cc(C)c2C(F)(F)F)C3)C1 [Example 149, 1-((R)-3-(((6R,7R)-7-(6-amino-4-methyl-3-(trifluoromethyl)pyridin-2-yl)-6-methyl-2-((tetrahydro-1H-pyrrolizin-7a(5H)-yl)methoxy)-5,6,7,8-tetrahydroquinazolin-4-yl)(methyl)amino)pyrrolidin-1-yl)prop-2-en-1-one]	≥ 500
Cc1nccc(/C=C/C(=O)N2CC(CN(C)c3nc(OC[C@@]45CCCN4C[C@H](F)C5)nc4c(F)c(-c5nc(N)cc6cccc(Cl)c56)ncc34)C2)n1 [Example 156, (E)-1-(3-(((7-(3-amino-8-chloroisoquinolin-1-yl)-8-fluoro-2-(((2R,7aS)-2-fluorotetrahydro-1H-pyrrolizin-7a(5H)-yl)methoxy)pyrido[4,3-d]pyrimidin-4-yl)(methyl)amino)methyl)azetidin-1-yl)-3-(2-methylpyrimidin-4-yl)prop-2-en-1-one]	10 to 100
C=CC(=O)N1CC[C@@H](N(C)c2nc(OC[C@@]34CCCN3C[C@H](F)C4)nc3c(F)c(-c4cncc5ccc(F)c(F)c45)ncc23)C1 [Example 190]	≥ 500
Cc1cc(N)nc([C@H]2Cc3nc(OC[C@@]45CCCN4C[C@H](F)C5)nc(N(C)CC4CN(C(=O)/C=C/c5nc(C(C)(C)O)no5)C4)c3C[C@@H]2C)c1C(F)(F)F (single isomer, unassigned) [Example 155]	≥ 500
C=CC(=O)N1CC(CN(C)c2nc(OCC34CCCN3CCC4)nc3c2CC(C)C(c2nc(N)cc(C)c2C(F)(F)F)C3)C1 (centres unmarked) [Example 207]	≥ 500

More lines, now with the values ahead:

IC50 [nM]	Compound
10 to 100	Cc1cc(N)nc(-c2ncc3c(N(C)[C@@H]4CCN(C(=O)/C=C/CN(C)C)C4)nc(OC[C@@]45CCCN4C[C@H](F)C5)nc3c2F)c1C(F)(F)F [Example 62, (E)-1-((R)-3-((7-(6-amino-4-methyl-3-(trifluoromethyl)pyridin-2-yl)-8-fluoro-2-(((2R,7aS)-2-fluorohexahydro-1H-pyrrolizin-7a-yl)methoxy)pyrido[4,3-d]pyrimidin-4-yl)(methyl)amino)pyrrolidin-1-yl)-4-(dimethylamino)but-2-en-1-one]
< 10	CN(c1nc(OC[C@@]23CCCN2C[C@H](F)C3)nc2c(F)c(-c3nc(N)cc4cccc(F)c34)ncc12)[C@@H]1CCN(C(=O)/C=C/c2nc(C(C)(C)O)no2)C1 [Example 142]
< 10	CN(CC1CN(C(=O)/C=C/c2nc(C(C)(C)O)no2)C1)c1nc(OC[C@@]23CCCN2C[C@H](F)C3)nc2c(F)c(-c3nc(N)cc4cccc(F)c34)ncc12 [Example 35, (E)-1-(3-(((7-(3-amino-8-fluoroisoquinolin-1-yl)-8-fluoro-2-(((2R,7aS)-2-fluorohexahydro-1H-pyrrolizin-7a-yl)methoxy)pyrido[4,3-d]pyrimidin-4-yl)(methyl)amino)methyl)azetidin-1-yl)-3-(3-(2-hydroxypropan-2-yl)-1,2,4-oxadiazol-5-yl)prop-2-en-1-one]
10 to 100	C=CC(=O)N1CC[C@@H](N(C)c2nc(OC[C@@]34CCCN3C[C@H](F)C4)nc3c(F)c(-c4nc(N)cc5cccc(F)c45)ncc23)C1 [Example 76, 1-((R)-3-((7-(3-amino-8-fluoroisoquinolin-1-yl)-8-fluoro-2-(((2R,7aS)-2-fluorohexahydro-1H-pyrrolizin-7a-yl)methoxy)pyrido[4,3-d]pyrimidin-4-yl)(methyl)amino)pyrrolidin-1-yl)prop-2-en-1-one]
10 to 100	Cc1nccc(/C=C/C(=O)N2CC(CN(C)c3nc(OC[C@@]45CCCN4C[C@H](F)C5)nc4c(F)c(-c5nc(N)cc6cccc(F)c56)ncc34)C2)n1 [Example 141, (E)-1-(3-(((7-(3-amino-8-fluoroisoquinolin-1-yl)-8-fluoro-2-(((2R,7aS)-2-fluorotetrahydro-1H-pyrrolizin-7a(5H)-yl)methoxy)pyrido[4,3-d]pyrimidin-4-yl)(methyl)amino)methyl)azetidin-1-yl)-3-(2-methylpyrimidin-4-yl)prop-2-en-1-one]
< 10	Cc1noc(/C=C/C(=O)N2CC[C@@H](N(C)c3nc(OC[C@@]45CCCN4C[C@H](F)C5)nc4c(F)c(-c5nc(N)cc6cccc(Cl)c56)ncc34)C2)n1 [Example 150, (E)-1-((R)-3-((7-(3-amino-8-chloroisoquinolin-1-yl)-8-fluoro-2-(((2R,7aS)-2-fluorotetrahydro-1H-pyrrolizin-7a(5H)-yl)methoxy)pyrido[4,3-d]pyrimidin-4-yl)(methyl)amino)pyrrolidin-1-yl)-3-(3-methyl-1,2,4-oxadiazol-5-yl)prop-2-en-1-one]
< 10	CN(CC1CN(C(=O)/C=C/c2nc(C(C)(F)F)no2)C1)c1nc(OC[C@@]23CCCN2C[C@H](F)C3)nc2c(F)c(-c3nc(N)cc4cccc(F)c34)ncc12 [Example 113]
< 10	CN1CC[C@@H]1/C=C/C(=O)N1CC[C@@H](N(C)c2nc(OC[C@@]34CCCN3C[C@H](F)C4)nc3c(F)c(-c4nc(N)cc5cccc(F)c45)ncc23)C1 [Example 90]
